Reference: patent US5912227A, “Method of enhancing nutrient uptake” (North Carolina State University, priority 1995, dated 1999)

B1: recombinant bovine growth hormone: recombinant bovine growth hormone injected in sheep (cited Ph.D. thesis) (protein, UniProt P01246 27-217, looked up)
Somatotropin: AFPAMSLSGLFANAVLRAQHLHQLAADTFKEFERTYIPEGQRYSIQNTQVAFCFSETIPAPTGKNEAQQKSDLELLRISLLLIQSWLGPLQFLSRVFTNSLVFGTSDRVYEKLKDLEEGILALMRELEDGTPRAGQILKQTYDKFDTNMRSDDALLKNYGLLSCFRKDLHKTETYLRVMKCRRFGEASCAF

Experiments:
[1] = test system: jejunal glucose transport (S-GLT1 transporter); assay: Jejunal glucose transport ([3H]3-O-methyl-D-glucose uptake by jejunal rings of treated mice, with and without phlorizin); assay type: in vivo, swiss-webster mice; settings: for Glucose Transport, Total / Glucose Transport, Active / Glucose Transport, Passive: mid-jejunal rings of treated mice; for Glucose Transport, Total: 37° C. without phlorizin minus 4° C. with phlorizin; for Glucose Transport, Active: difference of 3OMG accumulation with and without phlorizin, 37° C.; for Glucose Transport, Passive: with phlorizin, 37° C. minus 4° C.
Method: (§1) Two month old male swiss-webster mice obtained from Charles River Laboratory were subcutaneously injected in the post-scapula region once a day for three days with one of the following treatments: (1) Saline treatment: 0.25 ml of sterile physiological saline (0.9% saline) (n=9 mice); (2) Peptide YY (PYY) treatment: 300 μg per kilogram body weight of Peptide YY in 0.25 ml sterile physiological saline solution (n=6 mice); (c) Somatostatin treatment: 120 μg per kilogram body weight of somatostatin in 0.25 ml sterile physiological saline solution (n=6 mice); or (4) Transforming Growth Factor alpha (TGFα) treatment: 300 μg per kilogram body weight of TGFα in 0.25 ml sterile physiological saline solution (n=6 mice).
A sample of mid-jejunal tissue was dissected out of each of the small intestines removed in Example 2. As described below, each glucose transport assay was replicated three times per mouse, and an assay to measure non-specific binding was replicated twice per mouse. Thus each mid-jejunal sample (one from each mouse) was cut into eight one millimeter rings.
The assay for glucose transport was a modification of the assay validated by Black, Comp. Biochem Physiol. 90A:379 (1988) to measure glucose transport in embryonic chick duodenum. Additional details of the present method as modified for mouse intestine are discussed in Bird et al., J. Nutr. 124:231 (1994), and the method is validated for mice in Bird et al., Nutr. Research, 14:411 […]. The transport buffer utilized for jejunal samples was similar to that described by Black (1988) but also contained 0.5 mmol/L 3-O-methyl-D-glucose (3 OMG), 0.5 mmol/L B-hydroxybutyrate, and 2.5 mmol/L glutamine. The assay was started by transferring intestinal rings preincubated at 37° C. for 5 minutes in transport buffer to beakers containing 28 MBq/L of [^3 H]3 OMG in 2 ml of buffer. To differentiate active from passive transport, phlorizin (phloretin-2'-β-D-glucoside; Sigma Chemicals, St. Louis, Mo.) was utilized. Phlorizin is a specific inhibitor of the S-GLT1 transporter (a sodium dependent active transporter) located on the luminal surface of absorptive epithelium (see Brot-Laroche and Alvarado, Mechanisms of sugar transport across the intestinal brush border membrane, IN: Intestinal Transport: Fundamental and Comparative Aspects, Gilles-Baillin and Gilles (Eds.), Springer-Verlag, Berlin (1983)). The S-GLT1 transporter is one of a family of transporter proteins, and actively transports glucose.
Uptake of [^3 H]3 OMG was stopped after 5 minutes by rinsing samples in 3 ml of ice-cold mannitol (300 mmol/L). Labelled substrate was extracted from the tissue into 2 mL of trichloroacetic acid (25 g/L) at 37° C. for 60 minutes in a shaking water bath. Samples were removed, blotted and weighed. The extract was centrifuged at 2000×g for 15 minutes at 4° C., and then 1 ml of the decanted supernatant was dispersed in 5 ml of Ecolite (+) scintillation cocktail (ICN Biomedicals, Cleveland, Ohio) and counted for 10 minutes in a scintillation counter. Duplicate aliquots (100 uL) of incubation media containing approximately 2.8 kBq [^3 H]3 OMG (both with and without phlorizin) and a blank were counted with each set of samples.
Active glucose transport was calculated as the difference between 3 OMG accumulation in media with and without phlorizin. Passive transport was calculated as the difference between 3 OMG accumulation in the presence of phlorizin at 37° C. and 4° C. Total transport is the difference between 3 OMG accumulation at 37° C., in the absence of phlorizin, and accumulation at 4° C. in the presence of phlorizin. Transport data are presented as pmol glucose/(min-mg wet tissue). Fasting body weight of the mice was used to express data on a body weight basis.

[2] = Visceral organ weight of treated mice; assay type: in vivo, swiss-webster mice
Method: as §1
After the treated mice were sacrificed by cervical dislocation as described in Example 2, the visceral organs were dissected out and the liver, stomach, kidneys, colon and caecum of each mouse was weighed. The kidneys of the PYY treatment group were heavier than those of other treatment groups for unknown reasons.

[3] = test system: jejunal oxygen consumption; assay: Jejunal oxygen consumption of treated mice, with and without ouabain; assay type: in vivo, swiss-webster mice; settings: jejunum of treated mice, 37° C.; for Oxygen Consumption, With Ouabain, Dry / Oxygen Consumption, Without Ouabain, Dry: dry tissue; for Oxygen Consumption, With Ouabain, Wet / Oxygen Consumption, Without Ouabain, Wet: wet tissue
Method: as §1
Measurement of oxygen consumption rate was determined as described by McBride and Milligan, Br. J. Nutr., 53:605 (1985) for ovine duodenal mucosa, and as described by Bird et al., J. Nutr. 124:231 (1994) for mice jejunum, using an oxygen monitor and an incubation bath fitted with an O2 electrode (Yellow Springs Instruments, Yellow Springs, Ohio, USA). Adjacent jejunal ring samples (two from each mouse jejunum) were prepared by rinsing in ice-cold HEPES transport buffer to remove digesta residues. The rate of O2 uptake of the duplicate jejunal samples, constantly stirred in 4 ml of media at 37° C., was electronically recorded. After 3 minutes, 100 uL of 12.6 mmol/L ouabain (Sigma Chemical), a specific inhibitor of Na+, K+-ATPase, was added to the chamber and oxygen consumption was plotted for 3 minutes. Dry matter content of the tissue pieces was then measured by drying the jejunal samples at 80° C. in a forced draught oven for 48 hours.

[4] = test system: Na-dependent active glucose uptake; assay: Energetic efficiency of Na-dependent active glucose uptake; assay type: in vivo, swiss-webster mice; settings: compared with saline control; 1 nmol O2 assumed = 5 nmol ATP; FIG. 1
Method: The energetic efficiency of Na-dependent active glucose uptake in the PYY treated mice and the saline control treated mice was calculated, assuming that consumption of 1 nmol of O2 (as measured in Example 5, above) indicated expenditure of 5 nmol of ATP (Gill et al., J. Nutr. 119:1287-1299 (1989).

[5] = test system: water and electrolyte absorption from the small intestine; settings: unfed dogs, peripheral infusion; cited from earlier work
[6] = test system: sodium-dependent duodenal active transport; settings: sheep injected with recombinant bovine growth hormone; cited from earlier work
[7] = mice, s.c. once a day for three days

Row | Molecule | Glucose Transport, Total [1] [pmol/min/mg tissue] | Glucose Transport, Active [1] [pmol/min/mg tissue] | Glucose Transport, Passive [1] [pmol/min/mg tissue] | Organ Weight, Caecum ([2]; mouse, in vivo, sc) [mg] | Organ Weight, Colon ([2]; mouse, in vivo, sc) [mg] | Organ Weight, Kidneys ([2]; mouse, in vivo, sc) [mg] | Organ Weight, Liver ([2]; mouse, in vivo, sc) [mg] | Organ Weight, Stomach ([2]; mouse, in vivo, sc) [mg] | Oxygen Consumption, With Ouabain, Dry [3] [µL/min/g] | Oxygen Consumption, Without Ouabain, Dry [3] [µL/min/g] | Oxygen Consumption, With Ouabain, Wet [3] [µL/min/g] | Oxygen Consumption, Without Ouabain, Wet [3] [µL/min/g] | further results
1 | Transforming Growth Factor alpha [TGFα] | 410 | 347 | 64 | 156 | 379 | 522 | 1442 | 243 | 179.01 | 238.76 | 36.03 | 47.96 | –
2 | C[C@H](N)C(=O)NCC(=O)N[C@H]1CSSC[C@@H](C(=O)O)NC(=O)[C@H](CO)NC(=O)[C@H]([C@@H](C)O)NC(=O)[C@H](Cc2ccccc2)NC(=O)[C@H]([C@@H](C)O)NC(=O)[C@H](CCCCN)NC(=O)[C@H](Cc2c[nH]c3ccccc23)NC(=O)[C@H](Cc2ccccc2)NC(=O)[C@H](Cc2ccccc2)NC(=O)[C@H](CC(N)=O)NC(=O)[C@H](CCCCN)NC1=O [Somatostatin, somatostatin] | 371 | 303 | 67 | – | – | – | – | – | 181.29 | 224.77 | 35.13 | 43.62 | Organ Weight, Caecum [2, 7]: 156 mg; Organ Weight, Colon [2, 7]: 316 mg; Organ Weight, Kidneys [2, 7]: 534 mg; Organ Weight, Liver [2, 7]: 1441 mg; Organ Weight, Stomach [2, 7]: 232 mg
3 | PYY: 36 amino acid hormonal peptide, produced by "L type" endocrine cells; member of the pancreatic polypeptide family [Peptide YY] | 431 | 369 | 63 | 134 | 315 | 468 | 1274 | 230 | 194.22 | 253.93 | 36.54 | 47.71 | increase in active glucose transport expressed per unit of body weight (Table 2 footnote) ([1]; compared to saline control): 46; increase in active glucose transport expressed per unit of fasting body weight ([1]; compared to the saline control group): 46%; active glucose transport, comparison with saline control group ([1]; per milligram of intestinal tissue): statistically significant increase; metabolic cost of total glucose uptake (total nmol ATP expended per nmol of 3OMG uptake) [4]: less; water and electrolyte absorption from the small intestine [5]: dose-dependent increase
4 | B1 | – | – | – | – | – | – | – | – | – | – | – | – | increase of sodium-dependent duodenal active transport of glucose [6]: approximately 60%; increase of transport of proline [6]: approximately 30%
